Consider four compounds from paper PMC10004634 (PLOS ONE, 2023).

The target of experiment [1] is LYNa (Homo sapiens, UniProt P07948). The experiment can be described thus: mobility shift assay (MSA).
The target in experiment [2] is FYN (Homo sapiens, UniProt P06241). Briefly: mobility shift assay (MSA).
The target of experiment [3] is LCK (Homo sapiens, UniProt P06239). Briefly: mobility shift assay (MSA).
For experiment [4], the target named is CSK (Homo sapiens, UniProt P41240). Briefly: mobility shift assay (MSA).
CSK, sequence (P41240 whole entry): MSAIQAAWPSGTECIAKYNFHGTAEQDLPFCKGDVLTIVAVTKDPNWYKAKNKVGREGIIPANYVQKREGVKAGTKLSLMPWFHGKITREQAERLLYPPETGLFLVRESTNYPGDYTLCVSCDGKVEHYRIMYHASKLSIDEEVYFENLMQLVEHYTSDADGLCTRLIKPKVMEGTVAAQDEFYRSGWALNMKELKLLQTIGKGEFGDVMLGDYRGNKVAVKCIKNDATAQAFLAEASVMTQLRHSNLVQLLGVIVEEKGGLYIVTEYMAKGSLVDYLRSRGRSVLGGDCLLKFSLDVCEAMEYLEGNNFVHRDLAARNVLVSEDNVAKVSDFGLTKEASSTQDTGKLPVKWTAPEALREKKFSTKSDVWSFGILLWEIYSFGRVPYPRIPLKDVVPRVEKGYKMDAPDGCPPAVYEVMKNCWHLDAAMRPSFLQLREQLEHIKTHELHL
The target of experiment [5] is CSNK2A1 (Homo sapiens, UniProt P68400). Briefly: biochemical. Set-up: KINOMEscan scanMAX competition binding, DNA-tagged kinases, qPCR read-out, percent control at 300 nM.
Experiment [6] addresses PRKCI (Homo sapiens, UniProt P41743). Briefly: biochemical. Further details: KINOMEscan scanMAX competition binding, DNA-tagged kinases, qPCR read-out, percent control at 300 nM.
In experiment [7] the target is MET(Y1235D) (Homo sapiens, UniProt P08581, Y1235D). Briefly: biochemical. Set-up: KINOMEscan scanMAX competition binding, DNA-tagged kinases, qPCR read-out, percent control at 300 nM.
Experiment [8] concerns the target MKNK2 (Homo sapiens, UniProt Q9HBH9). Briefly: biochemical. Further details: KINOMEscan scanMAX competition binding, DNA-tagged kinases, qPCR read-out, percent control at 300 nM.
Experiment [9] concerns the target T1, GCN2(Kin.Dom.2,S808G) (Homo sapiens, UniProt Q9P2K8, S808G).
T1 construct: gene EIF2AK4; Kin.Dom.2
Briefly: biochemical. Further details: KINOMEscan scanMAX competition binding, DNA-tagged kinases, qPCR read-out, percent control at 300 nM.

Experiment [10] has as its target TAOK3 (Homo sapiens, UniProt Q9H2K8). Briefly: biochemical. Further details: KINOMEscan scanMAX competition binding, DNA-tagged kinases, qPCR read-out, percent control at 300 nM.
Experiment [11] concerns the target KIT(V559D,V654A) (Homo sapiens, UniProt P10721, V559D/V654A). Briefly: biochemical. Further details: KINOMEscan scanMAX competition binding, DNA-tagged kinases, qPCR read-out, percent control at 300 nM.
Experiment [12] addresses T2, ABL1(T315I)-phosphorylated (Homo sapiens, UniProt P00519, T315I).
T2 construct: phosphorylated
Briefly: biochemical. Further details: KINOMEscan scanMAX competition binding, DNA-tagged kinases, qPCR read-out, percent control at 300 nM.

The target in experiment [13] is T3, SgK110 (Homo sapiens, UniProt P0C264).
T3 construct: gene SBK3
The experiment can be described thus: biochemical. Set-up: KINOMEscan scanMAX competition binding, DNA-tagged kinases, qPCR read-out, percent control at 300 nM.

Experiment [14] addresses T4, MRCKB (Homo sapiens, UniProt Q9Y5S2).
T4 construct: gene CDC42BPB
Briefly: biochemical. Set-up: KINOMEscan scanMAX competition binding, DNA-tagged kinases, qPCR read-out, percent control at 300 nM.

The target of experiment [15] is GRK7 (Homo sapiens, UniProt Q8WTQ7). Briefly: biochemical. Set-up: KINOMEscan scanMAX competition binding, DNA-tagged kinases, qPCR read-out, percent control at 300 nM.
GRK7, sequence (Q8WTQ7 whole entry): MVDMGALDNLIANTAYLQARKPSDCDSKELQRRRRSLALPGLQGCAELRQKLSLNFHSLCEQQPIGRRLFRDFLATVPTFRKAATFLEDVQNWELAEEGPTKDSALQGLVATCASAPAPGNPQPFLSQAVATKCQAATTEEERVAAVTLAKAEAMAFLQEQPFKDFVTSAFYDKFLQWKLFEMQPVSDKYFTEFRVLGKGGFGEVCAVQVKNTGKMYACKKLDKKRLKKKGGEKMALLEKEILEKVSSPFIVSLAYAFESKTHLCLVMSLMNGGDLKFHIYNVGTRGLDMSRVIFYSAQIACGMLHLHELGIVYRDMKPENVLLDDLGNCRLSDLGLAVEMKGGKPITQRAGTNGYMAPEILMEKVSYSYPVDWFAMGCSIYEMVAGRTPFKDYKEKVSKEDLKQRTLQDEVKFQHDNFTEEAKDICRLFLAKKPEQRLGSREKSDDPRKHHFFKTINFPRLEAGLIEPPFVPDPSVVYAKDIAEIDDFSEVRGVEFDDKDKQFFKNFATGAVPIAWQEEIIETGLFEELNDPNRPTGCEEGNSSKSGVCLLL
Experiment [16] deals with PRKD2 (Homo sapiens, UniProt Q9BZL6). The experiment can be described thus: biochemical. Further details: KINOMEscan scanMAX competition binding, DNA-tagged kinases, qPCR read-out, percent control at 300 nM.
PRKD2, sequence (Q9BZL6 whole entry): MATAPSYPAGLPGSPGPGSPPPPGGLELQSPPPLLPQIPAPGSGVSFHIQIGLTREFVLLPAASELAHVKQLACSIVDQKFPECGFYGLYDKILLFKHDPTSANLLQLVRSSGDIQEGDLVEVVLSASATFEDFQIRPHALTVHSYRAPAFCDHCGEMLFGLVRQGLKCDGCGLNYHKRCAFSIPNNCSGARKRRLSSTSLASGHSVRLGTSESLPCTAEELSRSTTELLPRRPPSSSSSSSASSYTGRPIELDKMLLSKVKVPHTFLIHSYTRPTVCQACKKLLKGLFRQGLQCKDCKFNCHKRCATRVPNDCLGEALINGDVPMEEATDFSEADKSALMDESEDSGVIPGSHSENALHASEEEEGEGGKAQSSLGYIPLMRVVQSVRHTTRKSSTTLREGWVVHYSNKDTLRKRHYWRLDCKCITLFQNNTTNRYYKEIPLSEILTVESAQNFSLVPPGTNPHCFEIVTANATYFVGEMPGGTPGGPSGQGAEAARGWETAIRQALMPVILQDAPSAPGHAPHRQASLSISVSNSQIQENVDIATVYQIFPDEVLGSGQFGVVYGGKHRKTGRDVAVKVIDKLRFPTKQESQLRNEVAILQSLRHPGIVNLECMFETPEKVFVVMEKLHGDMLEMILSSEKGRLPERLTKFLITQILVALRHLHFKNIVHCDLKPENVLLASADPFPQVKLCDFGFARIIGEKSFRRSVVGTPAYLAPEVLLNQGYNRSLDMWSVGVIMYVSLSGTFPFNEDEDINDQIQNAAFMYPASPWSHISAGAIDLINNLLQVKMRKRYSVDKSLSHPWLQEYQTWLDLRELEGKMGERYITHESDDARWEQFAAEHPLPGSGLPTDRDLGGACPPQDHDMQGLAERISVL
The target in experiment [17] is ACVR2B (Homo sapiens, UniProt Q13705). Briefly: biochemical. Further details: KINOMEscan scanMAX competition binding, DNA-tagged kinases, qPCR read-out, percent control at 300 nM.
ACVR2B, sequence (Q13705 whole entry): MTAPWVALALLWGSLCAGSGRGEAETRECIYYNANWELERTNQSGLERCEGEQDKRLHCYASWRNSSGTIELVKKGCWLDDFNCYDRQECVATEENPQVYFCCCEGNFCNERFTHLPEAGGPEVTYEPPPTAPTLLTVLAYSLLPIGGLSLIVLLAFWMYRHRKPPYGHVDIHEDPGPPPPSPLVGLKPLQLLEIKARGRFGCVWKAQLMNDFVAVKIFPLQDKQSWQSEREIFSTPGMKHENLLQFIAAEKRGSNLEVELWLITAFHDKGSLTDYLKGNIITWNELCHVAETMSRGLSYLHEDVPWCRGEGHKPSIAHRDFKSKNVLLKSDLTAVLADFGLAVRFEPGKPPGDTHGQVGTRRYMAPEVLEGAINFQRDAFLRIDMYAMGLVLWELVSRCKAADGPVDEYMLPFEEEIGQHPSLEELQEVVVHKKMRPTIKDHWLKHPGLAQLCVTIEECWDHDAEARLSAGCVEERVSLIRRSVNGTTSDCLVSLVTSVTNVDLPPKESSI
The target in experiment [18] is PRKD1 (Homo sapiens, UniProt Q15139). Briefly: biochemical. Set-up: KINOMEscan scanMAX competition binding, DNA-tagged kinases, qPCR read-out, percent control at 300 nM.
Experiment [19] addresses FLT3(D835Y) (Homo sapiens, UniProt P36888, D835Y). The experiment can be described thus: biochemical. Further details: KINOMEscan scanMAX competition binding, DNA-tagged kinases, qPCR read-out, percent control at 300 nM.
Experiment [20] has as its target BLK (Homo sapiens, UniProt P51451). The experiment can be described thus: Z'-Lyte kinase inhibition assay. Set-up: purchased Thermo Fisher Scientific (Invitrogen Z'-Lyte service). The class given is biochemical. As to conditions: 60 min preincubation. The method, then:
In all the assays, each test compound was preincubated with peptide/kinase mixture or kinase/antibody mixture for 60 min at room temperature before adding the ATP solution or AlexaFluor labeled Tracer to initiate the 60-min incubation of the reactants.

Experiment [21] addresses BMPR1A (Homo sapiens, UniProt P36894). Briefly: biochemical. Further details: KINOMEscan scanMAX competition binding, DNA-tagged kinases, qPCR read-out, percent control at 300 nM.
The target in experiment [22] is T5, TYK2(JH1domain-catalytic) (Homo sapiens, UniProt P29597).
T5 construct: JH1domain-catalytic
Briefly: biochemical. Set-up: KINOMEscan scanMAX competition binding, DNA-tagged kinases, qPCR read-out, percent control at 300 nM.

Experiment [23] has as its target T6, TIE2 (Homo sapiens, UniProt Q02763).
T6 construct: gene TEK
Briefly: biochemical. Set-up: KINOMEscan scanMAX competition binding, DNA-tagged kinases, qPCR read-out, percent control at 300 nM.

Experiment [24] deals with T7, RPS6KA5(Kin.Dom.1-N-terminal) (Homo sapiens, UniProt O75582).
T7 construct: Kin.Dom.1-N-terminal
The experiment can be described thus: biochemical. Set-up: KINOMEscan scanMAX competition binding, DNA-tagged kinases, qPCR read-out, percent control at 300 nM.

Where [25] appears, read: read-out: Percent control / Acalabrutinib.
[26] abbreviates: read-out: Percent control / Ibrutinib.
Setting [27] is: read-out: Percent control / Tirabrutinib.
Setting [28] is: read-out: Percent control / Zanubrutinib.

The structures appear in SMILES notation. Read-outs that look alike come from different tables or passages of the source.

TAOK3, sequence (Q9H2K8 whole entry): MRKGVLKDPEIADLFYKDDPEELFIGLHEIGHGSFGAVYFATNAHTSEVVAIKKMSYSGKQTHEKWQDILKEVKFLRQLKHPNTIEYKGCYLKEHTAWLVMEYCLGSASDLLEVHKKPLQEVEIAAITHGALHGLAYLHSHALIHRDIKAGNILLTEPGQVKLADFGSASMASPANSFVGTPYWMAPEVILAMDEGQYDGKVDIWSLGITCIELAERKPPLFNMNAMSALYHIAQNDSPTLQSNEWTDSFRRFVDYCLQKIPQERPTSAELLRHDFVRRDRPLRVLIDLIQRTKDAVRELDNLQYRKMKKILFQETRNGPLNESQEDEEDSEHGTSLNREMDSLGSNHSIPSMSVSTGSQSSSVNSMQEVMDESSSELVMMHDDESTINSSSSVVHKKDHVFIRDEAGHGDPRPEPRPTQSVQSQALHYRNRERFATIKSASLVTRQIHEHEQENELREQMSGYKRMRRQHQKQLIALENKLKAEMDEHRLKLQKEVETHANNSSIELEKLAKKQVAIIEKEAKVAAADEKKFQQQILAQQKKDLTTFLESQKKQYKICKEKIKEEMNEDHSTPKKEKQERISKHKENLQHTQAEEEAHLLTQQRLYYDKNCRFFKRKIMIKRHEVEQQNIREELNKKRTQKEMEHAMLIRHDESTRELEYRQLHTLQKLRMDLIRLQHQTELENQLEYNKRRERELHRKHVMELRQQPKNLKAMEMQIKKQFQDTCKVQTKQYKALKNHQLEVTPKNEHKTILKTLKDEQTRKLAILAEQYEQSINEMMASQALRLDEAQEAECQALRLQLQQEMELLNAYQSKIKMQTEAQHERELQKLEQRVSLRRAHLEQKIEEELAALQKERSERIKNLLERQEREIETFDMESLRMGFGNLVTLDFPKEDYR
LCK, sequence (P06239 whole entry): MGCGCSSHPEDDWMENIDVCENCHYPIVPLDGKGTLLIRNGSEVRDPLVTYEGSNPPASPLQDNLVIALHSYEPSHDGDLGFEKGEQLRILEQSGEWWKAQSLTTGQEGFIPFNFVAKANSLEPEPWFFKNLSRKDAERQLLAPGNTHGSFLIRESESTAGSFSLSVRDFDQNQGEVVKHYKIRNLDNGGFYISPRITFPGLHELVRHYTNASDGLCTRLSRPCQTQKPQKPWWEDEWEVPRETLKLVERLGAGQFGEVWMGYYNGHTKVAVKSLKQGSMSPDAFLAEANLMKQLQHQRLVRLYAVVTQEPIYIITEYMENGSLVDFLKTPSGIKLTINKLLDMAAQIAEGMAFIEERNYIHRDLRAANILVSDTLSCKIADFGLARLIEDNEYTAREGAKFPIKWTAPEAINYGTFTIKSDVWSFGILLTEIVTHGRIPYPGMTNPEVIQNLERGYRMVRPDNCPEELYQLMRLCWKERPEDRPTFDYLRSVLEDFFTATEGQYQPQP
LYNa, sequence (P07948 whole entry): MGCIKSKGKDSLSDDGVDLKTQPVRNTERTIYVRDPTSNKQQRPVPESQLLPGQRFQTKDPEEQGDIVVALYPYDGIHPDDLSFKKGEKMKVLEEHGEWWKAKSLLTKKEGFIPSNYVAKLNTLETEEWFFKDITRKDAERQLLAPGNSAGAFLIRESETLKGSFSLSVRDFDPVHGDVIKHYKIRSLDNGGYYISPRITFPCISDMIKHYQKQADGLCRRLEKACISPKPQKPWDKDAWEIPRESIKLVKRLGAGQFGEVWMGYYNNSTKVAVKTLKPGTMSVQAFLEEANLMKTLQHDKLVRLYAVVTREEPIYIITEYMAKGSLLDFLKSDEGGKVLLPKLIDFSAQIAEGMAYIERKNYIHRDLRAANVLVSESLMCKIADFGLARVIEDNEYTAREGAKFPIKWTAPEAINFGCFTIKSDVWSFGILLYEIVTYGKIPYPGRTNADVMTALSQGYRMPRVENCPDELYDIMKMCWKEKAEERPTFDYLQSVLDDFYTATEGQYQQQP
BLK, sequence (P51451 whole entry): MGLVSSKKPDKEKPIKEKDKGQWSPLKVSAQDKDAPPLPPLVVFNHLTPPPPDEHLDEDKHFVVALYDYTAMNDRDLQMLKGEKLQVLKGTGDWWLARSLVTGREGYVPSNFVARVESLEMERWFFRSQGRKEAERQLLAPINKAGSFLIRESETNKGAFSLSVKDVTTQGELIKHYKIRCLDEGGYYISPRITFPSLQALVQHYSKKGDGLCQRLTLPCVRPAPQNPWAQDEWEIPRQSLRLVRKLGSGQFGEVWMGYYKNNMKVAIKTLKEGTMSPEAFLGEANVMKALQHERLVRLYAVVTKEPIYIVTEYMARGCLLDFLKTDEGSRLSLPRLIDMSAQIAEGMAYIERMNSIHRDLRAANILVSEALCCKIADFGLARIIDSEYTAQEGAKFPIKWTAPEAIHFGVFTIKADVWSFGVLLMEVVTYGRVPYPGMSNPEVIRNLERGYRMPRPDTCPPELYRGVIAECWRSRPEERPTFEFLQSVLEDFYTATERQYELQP

Turning to `CC#CC(=O)N1CCC[C@H]1c1nc(-c2ccc(C(=O)Nc3ccccn3)cc2)c2c(N)nccn12` [Acalabrutinib], the IC50 was greater than 10000 nM in experiment [1]; greater than 10000 nM in experiment [2]; 5200 nM in [3]; 6650 nM in [4]; 2270 nM in experiment [20]. Besides, the remaining binding at 0.3 µM in experiment [5] (setting [25]) is 99%; in [6] (setting [25]) it was 87%; in [7] (setting [25]) it was 86%; in experiment [8] (setting [25]), 93%; in experiment [9] (setting [25]), 91%; in experiment [10] (setting [25]) it was 99%. The remaining binding at 0.3 µM in experiment [11] (setting [25]) worked out at 94%; in experiment [12] (setting [25]), 97%; in [13] (setting [25]), 94%; in [14] (setting [25]) it was 93%; in experiment [15] (setting [25]), 74%; in [16] (setting [25]) it was 70%. The remaining binding at 0.3 µM worked out at 85% in experiment [17] (setting [25]), 95% in [18] (setting [25]) and 82% in experiment [19] (setting [25]).

Regarding `C=CC(=O)N1CCC[C@@H](n2nc(-c3ccc(Oc4ccccc4)cc3)c3c(N)ncnc32)C1` [Ibrutinib], the remaining binding at 0.3 µM came out at 90% in experiment [5] (setting [26]); 99% in experiment [21] (setting [26]); 98% in [10] (setting [26]); 87% in [22] (setting [26]); 72% in experiment [23] (setting [26]).

`CC#CC(=O)N1CC[C@@H](n2c(=O)n(-c3ccc(Oc4ccccc4)cc3)c3c(N)ncnc32)C1` [Tirabrutinib]: the IC50 in [1] was 3490 nM; in experiment [2], 2220 nM; in [3], 788 nM; in experiment [4], 449 nM; in experiment [20] it was 1280 nM. Further, the remaining binding at 0.3 µM came to 73% in [12] (setting [27]) and 80% in experiment [24] (setting [27]).

Turning to `C=CC(=O)N1CCC([C@@H]2CCNc3c(C(N)=O)c(-c4ccc(Oc5ccccc5)cc4)nn32)CC1` [Zanubrutinib], the remaining binding at 0.3 µM in [6] (setting [28]) was determined as 68%; in experiment [7] (setting [28]) it was 88%; in experiment [8] (setting [28]), 84%; in experiment [9] (setting [28]), 100%; in experiment [21] (setting [28]) it was 90%; in [11] (setting [28]), 90%. Further, the remaining binding at 0.3 µM in experiment [22] (setting [28]) was found to be 82%; in experiment [13] (setting [28]), 91%; in experiment [14] (setting [28]) it was 90%; in [15] (setting [28]), 100%; in [16] (setting [28]) it was 100%; in experiment [17] (setting [28]) it was 91%. Further, the remaining binding at 0.3 µM in experiment [18] (setting [28]) stood at 82%; in [24] (setting [28]) it was 100%; in [23] (setting [28]), 99%; in experiment [19] (setting [28]) it was 47%.
